The source of these data is patent US9567280B2, “Preparation of hop acids and their derivatives” (MillerCoors LLC, priority 2010, dated 2017).

The subject of assay [1] is Pediococcus damnosus. The assay can be described thus: Minimum inhibitory concentration (MIC) in modified BMB without Tween 80 culture medium. The following applies: for Growth of beer spoilage bacteria: hop acids in 70% ethanol; for Minimum inhibitory concentration (MIC): concentration at which no bacteria were detected. Type of assay: cell-based. Also noted: key to Growth of beer spoilage bacteria: + = Growth of beer spoilage bacteria; − = No growth of beer spoilage bacteria; +/− = Partial inhibition of bacterial growth. As for the experimental part:
(§1) The antimicrobial effect of three molecules was tested on Pediococcus damnosus and Lactobacillus brevis with two methods (MIC and BZI). MIC was determined based on the concentration at which no bacteria were detected in the modified BMB without Tween 80 culture medium. […] The average diameters of the zones of bacterial inhibition in Universal Beer Agar (UBA) produced by the filter paper disks immersed in 4000 ppm of THICO I, II, and III in 70% ethanol/water are shown in Table 5. Zone diameters increased with the same rates for three molecules on two different organisms (Pediococcus damnosus and Lactobacillus brevis) indicate that all molecules have the same antibacterial effectiveness. No enantioselective antibacterial interactions between THICO I, II, III and the microbial occur.

The next assay concerns Lactobacillus brevis. Nature of the assay: Bacterial zone of inhibition (BZI), filter paper disks on Universal Beer Agar. Type of assay: cell-based. The following applies: disks immersed in 4000 ppm in 70% ethanol/water. As for the experimental part: as §1
Assay [2] relates to Pediococcus damnosus. The description is as above. Type of assay: cell-based. The following applies: disks immersed in 4000 ppm in 70% ethanol/water. The protocol: as §1
The nature of assay [3]: Bitterness perception in aqueous 5% v/v ethanol/H2O solution. The settings on record: 6 ppm in 5% ethanol/H2O. The text has this: An aqueous 5% v/v ethanol/H2O solution was spiked with 6 ppm of THICO I, II, and III.
Assay [4] can be described thus: Sensory evaluation of unhopped lagers spiked with THICO. The text has this: Two sets of unhopped lagers (A and B) were spiked with 6 ppm and 13 ppm of THICO I, II, and III, respectively.
The other two beers were noted as being similar with initial intense bitterness that diminished slowly with slight lingering bitterness.

The mark [5] stands for this setting: set A: unhopped lager spiked with 6 ppm.

Entries after “also recorded” stand apart in the source; their conditions may differ.

Turning to (+)-cis- and (−)-trans-THICO [THICO I], the “Growth of beer spoilage bacteria” value with Pediococcus damnosus [1] (0.5 ppm) is recorded as “+”; in the assay with Pediococcus damnosus [1] (1 ppm), “+”; in the assay with Pediococcus damnosus [1] (2 ppm), “+”; in the assay on Pediococcus damnosus [1] (4 ppm) it was “+”; in the assay with Pediococcus damnosus [1] (8 ppm), “+”; in the assay on Pediococcus damnosus [1] (16 ppm), “+/−”. Moreover, the “Growth of beer spoilage bacteria” value in the assay on Pediococcus damnosus [1] (32 ppm), with Pediococcus damnosus [1] (64 ppm) and with Pediococcus damnosus [1] (128 ppm) was “−” in each case. For the same substance, the “Minimum inhibitory concentration (MIC)” value in the assay on Pediococcus damnosus [1] turned out to be 16 ppm. Besides, the “Diameter of Bacterial Zone of Inhibition” value in the assay with Lactobacillus brevis is recorded as 26 mm; in the assay on Pediococcus damnosus [2], 11.5 mm. Further, the “Bitterness intensity (rank order)” value in assay [3] is “THICO II>(±)-THICO III>THICO I”. Moreover, the “Sensory evaluation of bitterness in beer” value in assay [4] (setting [5]) is “a little more initial bitterness”.

Take “(±)-cis- and (±)-trans-tetrahydroisocohumulones [THICO III]”: the “Diameter of Bacterial Zone of Inhibition” value in the assay on Lactobacillus brevis worked out at 22.5 mm; in the assay with Pediococcus damnosus [2], 12 mm. In addition, the “Bitterness (bitter perception)” value was “smooth and milder than the others; also recorded: smooth, milder, clean” in assay [3]; “milder and smooth bitterness than THICO I; also recorded: smooth, clean and milder than I and II” in assay [3] (listed as (±)-THICO III). Moreover, the “Bitterness intensity (rank order)” value in assay [3] is “II>III>I”; in assay [3] (listed as (±)-THICO III), “THICO II>(±)-THICO III>THICO I”. In addition, the “Sensory evaluation of bitterness in beer” value in assay [4] (setting [5]) is “diminished quickly”.

“(−)-cis- and (+)-trans-tetrahydro isocohumulone [THICO II]”: the “Growth of beer spoilage bacteria” value in the assay on Pediococcus damnosus [1] (0.5 ppm) was “+”; with Pediococcus damnosus [1] (1 ppm), “+”; with Pediococcus damnosus [1] (2 ppm), “+”; with Pediococcus damnosus [1] (4 ppm) it was “+”; with Pediococcus damnosus [1] (8 ppm) it was “+”; in the assay on Pediococcus damnosus [1] (16 ppm), “+/−”. In addition, the “Growth of beer spoilage bacteria” value in the assay with Pediococcus damnosus [1] (32 ppm), in the assay on Pediococcus damnosus [1] (64 ppm) and in the assay with Pediococcus damnosus [1] (128 ppm) was “−” each time. Also, the “Minimum inhibitory concentration (MIC)” value with Pediococcus damnosus [1] is 16 ppm. The “Diameter of Bacterial Zone of Inhibition” value was 26.5 mm in the assay on Lactobacillus brevis and 12 mm with Pediococcus damnosus [2]. For the same substance, the “Bitterness intensity (rank order)” value in assay [3] is recorded as “THICO II>(±)-THICO III>THICO I”. Besides, the “Sensory evaluation of bitterness in beer” value is “the most bitterness and longest lingering” in assay [4] (setting [5]); “the strongest initial bitterness and lingered the longest” in assay [4] (set A: unhopped lager spiked with 6 ppm, listed as THCO II); “strong initial bitterness that increased (described as late bitterness) and also lingered” in assay [4] (set B: unhopped lager spiked with 13 ppm).
